Among the data in PubChem BioAssay AID248 (DTP/NCI, 2004) are T/C values, retold here.

Several values for one entry are separate records, joined by “and”; a condition that tells them apart may be missing. Equal values may be shown once. Inconclusive results and toxic doses are left out.

The subject of this assay is L1210 leukemia ip in BDF1 mice, survival T/C. Nature of the assay: NCI In Vivo Anticancer Drug Screen. Data for tumor model L1210 Leukemia (intraperitoneal) in B6D2F1 (BDF1) mice. The note with it: endpoint: mean survival time, higher = longer survival. The method, boiled down: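 In this screen, tumor-bearing mice given compound are compared to those given vehicle, and their survival values are reported as a treated-to-control quotient.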

Setting [1] is: dose: 50.0 mg/kg/injection, schedule: Q01DX001 (ip), vehicle: saline.
Where [2] appears, read: dose: 100.0 mg/kg/injection, schedule: Q01DX001 (ip), vehicle: saline.
The mark [3] stands for this setting: dose: 200.0 mg/kg/injection, schedule: Q01DX001 (ip), vehicle: saline.
[4] abbreviates: dose: 400.0 mg/kg/injection, schedule: Q01DX001 (ip), vehicle: saline.
The mark [5] stands for this setting: dose: 100.0 mg/kg/injection, schedule: Q04DX003 (ip), vehicle: Klucel (hydroxypropylcellulose) (HPC).
The mark [6] stands for this setting: dose: 400.0 mg/kg/injection, schedule: Q04DX003 (ip), vehicle: Klucel (hydroxypropylcellulose) (HPC).
Where [7] appears, read: dose: 100.0 mg/kg/injection, schedule: Q04DX003 (ip), vehicle: saline with Tween-80.
The mark [8] stands for this setting: dose: 200.0 mg/kg/injection, schedule: Q04DX003 (ip), vehicle: saline with Tween-80.
[9] abbreviates: dose: 400.0 mg/kg/injection, schedule: Q04DX003 (ip), vehicle: saline with Tween-80.

On to `CCC1C(=O)OCc2c1ccn(C)c2=O` (stereo not drawn), for which the T/C reads like this: (dose: 25.0 mg/kg/injection, schedule: Q01DX001 (ip), vehicle: saline) 114 % of control; (dose: 25.0 mg/kg/injection, schedule: Q04DX003 (ip), vehicle: saline) 95 % of control; under setting [1], 104 % of control; (dose: 50.0 mg/kg/injection, schedule: Q04DX003 (ip), vehicle: saline) 95 % of control; under setting [2], 103 % of control; (dose: 100.0 mg/kg/injection, schedule: Q04DX003 (ip), vehicle: saline) 101 % of control. Moreover, the T/C is, setting by setting: under setting [3], 106 % of control; (dose: 200.0 mg/kg/injection, schedule: Q04DX003 (ip), vehicle: saline) 101 % of control.
For the molecule `CC1(C)CC(=O)C(c2ccccc2[N+](=O)[O-])=C(O)C1`, the T/C under setting [1] is 102 % of control, the T/C under setting [2] was 105 % of control, the T/C under setting [3] was 90 % of control and the T/C under setting [4] was 94 % of control.
As to `COc1cc(NS(C)(=O)=O)ccc1Nc1c2ccccc2nc2cc(C(F)(F)F)c(N)cc12`, the T/C runs as follows: (dose: 50.0 mg/kg/injection, schedule: Q01DX009 (ip), vehicle: Klucel (hydroxypropylcellulose) (HPC)) 113 % of control and 123 % of control; (dose: 50.0 mg/kg/injection, schedule: Q04DX003 (ip), vehicle: Klucel (hydroxypropylcellulose) (HPC)) 118 % of control; under setting [5], 123 % of control; (dose: 200.0 mg/kg/injection, schedule: Q01DX009 (ip), vehicle: Klucel (hydroxypropylcellulose) (HPC)) 153 % of control and 174 % of control; (dose: 200.0 mg/kg/injection, schedule: Q04DX002 (ip), vehicle: Klucel (hydroxypropylcellulose) (HPC)) 162 % of control; (dose: 400.0 mg/kg/injection, schedule: Q04DX002 (ip), vehicle: Klucel (hydroxypropylcellulose) (HPC)) 179 % of control. For the same molecule, the T/C under setting [6] was 112 % of control.
Take `CC(=O)C(Cc1ccccc1)(c1ccccc1)c1ccccc1`: the T/C is 103 % of control under setting [1], 103 % of control under setting [2], 97 % of control under setting [3] and 97 % of control under setting [4].
Take `CC(=O)OCC1OC(n2cnc3c(F)nc(F)nc32)C(OC(C)=O)C1OC(C)=O` (stereo not drawn): the T/C was 104 % of control (dose: 100.0 mg/kg/injection, schedule: Q01DX001 (sc), vehicle: olive oil, sesame oil, peanut oil); 104 % of control (dose: 200.0 mg/kg/injection, schedule: Q01DX001 (sc), vehicle: olive oil, sesame oil, peanut oil); 100 % of control (dose: 400.0 mg/kg/injection, schedule: Q01DX001 (sc), vehicle: olive oil, sesame oil, peanut oil).
With `C[n+]1c(-c2ccc(Cl)c(Cl)c2)c2cc(N)ccc2c2ccccc21`, the T/C is, setting by setting: (dose: 3.12 mg/kg/injection, schedule: Q01DX009 (ip), vehicle: water) 102 % of control; (dose: 6.25 mg/kg/injection, schedule: Q01DX009 (ip), vehicle: water) 110 % of control; (dose: 12.5 mg/kg/injection, schedule: Q01DX009 (ip), vehicle: water) 104 % of control; (dose: 12.5 mg/kg/injection, schedule: Q04DX003 (ip), vehicle: water) 105 % of control; (dose: 25.0 mg/kg/injection, schedule: Q04DX003 (ip), vehicle: water) 93 % of control.
As for `O=c1ccncn1Cc1ccccc1`, the T/C is 100 % of control (dose: 100.0 mg/kg/injection, schedule: Q01DX001 (ip), vehicle: Klucel (hydroxypropylcellulose) (HPC)); 97 % of control (dose: 200.0 mg/kg/injection, schedule: Q01DX001 (ip), vehicle: Klucel (hydroxypropylcellulose) (HPC)); 91 % of control (dose: 400.0 mg/kg/injection, schedule: Q01DX001 (ip), vehicle: Klucel (hydroxypropylcellulose) (HPC)).
With `NC(=O)c1nccc2ccccc12`, the T/C reads like this: under setting [2], 110 % of control; under setting [3], 107 % of control; under setting [4], 98 % of control.
For the molecule `CN(C)CCOc1cccc(OCCN(C)C)n1`, the T/C runs as follows: (dose: 12.5 mg/kg/injection, schedule: Q01DX009 (ip), vehicle: saline with Tween-80) 104 % of control; (dose: 25.0 mg/kg/injection, schedule: Q01DX009 (ip), vehicle: saline with Tween-80) 103 % of control; (dose: 25.0 mg/kg/injection, schedule: Q04DX003 (ip), vehicle: saline with Tween-80) 96 % of control; (dose: 50.0 mg/kg/injection, schedule: Q01DX009 (ip), vehicle: saline with Tween-80) 103 % of control; (dose: 50.0 mg/kg/injection, schedule: Q04DX003 (ip), vehicle: saline with Tween-80) 96 % of control; under setting [7], 100 % of control.
Turning to `CC(Br)C(=O)O` (stereo not drawn), the T/C is 94 % of control under setting [1] and 111 % of control under setting [2].
Consider `CC(=O)Nc1ccc(CCc2nc(N)nc(Cl)c2-c2ccc(Cl)cc2)cc1`, for which the T/C (dose: 75.0 mg/kg/injection, schedule: Q01DX001 (ip), vehicle: saline) was 92 % of control; the T/C (dose: 150.0 mg/kg/injection, schedule: Q01DX001 (ip), vehicle: saline) is 87 % of control; the T/C (dose: 300.0 mg/kg/injection, schedule: Q01DX001 (ip), vehicle: saline) was 90 % of control.
With `COc1ccc(-c2c(C)c(C)[nH]c(=O)c2C#N)c(OCc2ccccc2)c1OC`, the T/C was 101 % of control under setting [2], 101 % of control under setting [3] and 93 % of control under setting [4].
For the molecule `O=c1[nH]cnc2c1c(Br)cn2C1OC(CO)C(O)C1O` (stereo not drawn), the T/C (dose: 100.0 mg/kg/injection, schedule: Q01DX001 (ip), vehicle: carboxymethylcellulose (CMC)) was 110 % of control; the T/C (dose: 200.0 mg/kg/injection, schedule: Q01DX001 (ip), vehicle: carboxymethylcellulose (CMC)) is 112 % of control; the T/C (dose: 400.0 mg/kg/injection, schedule: Q01DX001 (ip), vehicle: carboxymethylcellulose (CMC)) was 121 % of control.
With `O[C@@H]1CCCC[C@@H]1n1cnc2c(=S)nc[nH]c21`, the T/C (dose: 100.0 mg/kg/injection, schedule: Q01DX009 (ip), vehicle: saline with Tween-80) was 97 % of control; the T/C under setting [7] is 98 % of control; the T/C (dose: 200.0 mg/kg/injection, schedule: Q01DX009 (ip), vehicle: saline with Tween-80) is 93 % of control; the T/C under setting [8] was 93 % of control; the T/C (dose: 400.0 mg/kg/injection, schedule: Q01DX009 (ip), vehicle: saline with Tween-80) is 92 % of control; the T/C under setting [9] was 91 % of control.
Consider `COC1c2c(nc3ccccc3c2C#N)-c2ccccc2C1(C)C` (stereo not drawn), for which the T/C was 106 % of control under setting [5]; 95 % of control (dose: 200.0 mg/kg/injection, schedule: Q04DX003 (ip), vehicle: Klucel (hydroxypropylcellulose) (HPC)); 104 % of control under setting [6].
For the molecule `CC(=O)Oc1cccc(C#N)c1`, the T/C under setting [7] is 98 % of control, the T/C under setting [8] is 107 % of control and the T/C under setting [9] is 98 % of control.
Take `N=C(CN1CCCCC1)N1CCCCC1`: the T/C (dose: 100.0 mg/kg/injection, schedule: Q04DX002 (ip), vehicle: saline) is 104 % of control.
For `O=S(=O)(ON1C=CC=CC1)ON1C=CC=CC1`, the T/C was 106 % of control (dose: 25.0 mg/kg/injection, schedule: Q04DX002 (ip), vehicle: saline with Tween-80); 95 % of control (dose: 50.0 mg/kg/injection, schedule: Q04DX002 (ip), vehicle: saline with Tween-80); 106 % of control (dose: 100.0 mg/kg/injection, schedule: Q04DX002 (ip), vehicle: saline with Tween-80).
Regarding `CC1(C)OC2COC(c3[nH]nc(C(N)=O)c3C(=O)NN)C2O1` (stereo not drawn), the T/C reads like this: (dose: 100.0 mg/kg/injection, schedule: Q01DX005 (ip), vehicle: saline) 103 % of control; (dose: 200.0 mg/kg/injection, schedule: Q01DX005 (ip), vehicle: saline) 97 % of control.
On to `CCOC(=O)/C=C(/Nc1ccc(C(=O)c2ccccc2)cc1)C(=O)OCC`, for which the T/C was 87 % of control (dose: 100.0 mg/kg/injection, schedule: Q01DX001 (ip), vehicle: acetone); 95 % of control (dose: 100.0 mg/kg/injection, schedule: Q04DX003 (ip), vehicle: acetone); 92 % of control (dose: 200.0 mg/kg/injection, schedule: Q01DX001 (ip), vehicle: acetone); 93 % of control (dose: 200.0 mg/kg/injection, schedule: Q04DX003 (ip), vehicle: acetone); 90 % of control (dose: 400.0 mg/kg/injection, schedule: Q01DX001 (ip), vehicle: acetone); 98 % of control (dose: 400.0 mg/kg/injection, schedule: Q04DX003 (ip), vehicle: acetone).
